Biological target: S-BG (Novozymes SP188 from Sigma), commercial beta-glucosidase
Experiment: BG kinetics, cellobiose hydrolysis assay (HPLC) with glucose as competitive inhibitor, S-BG
Format: biochemical
Conditions: pH 4.8, 50° C.
Description: The kinetic properties of beta glucosidase are important for cellulosic hydrolysis, since in commercial situations a wide range of substrate concentrations and different product inhibition conditions will be encountered. In this example, a Michaelis-Menten kinetics model was used to describe BG kinetics. To determine these kinetic properties, BG activity assays using standard substrates pNPG and cellobiose were employed. yEdQ745-BG (wild type) and yEdQ885-BG (improved), were compared with two commercial BGs, A-BG (Accellerase®) BG from Dupont) and S-BG (Novozymes SP188 from Sigma).
BG activity assay using cellobiose is the other standard assay to measure BG or cellobiase activity, which utilizes hydrolysis of cellobiose by cellobiase into two molecules of glucose, the last step of enzymatic hydrolysis of cellulose. One cellobiase unit (commonly termed as CBU) is defined as the amount of enzyme that converts […] of cellobiose or produces 2 μmol of glucose per min. Briefly, to determine BG activity, 25 μL of diluted enzyme in 50 mM citrate buffer (pH 4.8) equilibrated to 50° C. was mixed with 25 μL cellobiose (or cellobiose/glucose mixture for the kinetic study) to start the reaction. The mixture was incubated at 50° C. for 10 min, and the reaction was terminated by incubating the mixture at 99° C. for 5 min. Different methods are available to measure the glucose produced in the assays. For the kinetic study, HPLC was used.
To determine kinetic properties using cellobiose substrate, duplicate assays with cellobiose concentrations ranging from 0.47 to 15 mM and glucose concentrations of 0, 0.9, 4.5, 6.75, and 8.1 (for A-BG) or 9 (for all the other three BGs) g/L were performed. As for pNPG substrate, the range of cellobiose substrate concentration was chosen to show detectable activity at the lowest substrate concentration and saturation stage at high substrate concentration. However, in contrast to the pNPG substrate, when there was still some activity left at glucose concentration up to 36 g/L, most of the BG activity was lost at an inhibitor level of 9 g/L when cellobiose substrate was used. […] It should also be noted that colorimetric glucose assay cannot provide activity results for inhibitory glucose levels above 0.9 g/L after several trials. Therefore, HPLC measurements were used for kinetic studies using cellobiose substrate. It should be pointed out that the HPLC method may not be sensitive enough either to capture BG activity under more severe glucose inhibition conditions than 9 g/L of glucose. Moreover, theoretically there are two ways to measure BG activity by HPLC when cellobiose is used as the substrate: tracking consumption of cellobiose or tracking production of glucose. However, as shown by the example of one set of results from S-BG in Table 3, tracking glucose is problematic due to measurement sensitivity. In Table 3, A % is defined as follows and is an indicator of measurement sensitivity, since the difference of substrate or product concentrations before and after reaction was used to determine BG activity. Δ%=(start conc. of cellobiose−end conc. of cellobiose)/start conc. of cellobiose×100% (3) Δ%=(end conc. of glucose−start conc. of glucose)/start conc. of glucose×100% (4)
With increasing inhibitor (glucose) level, Δ% is decreasing. For the case of tracking glucose, Δ% was too small to be reliable when 4.5 g/L of glucose was added at the beginning. […] Thus, the approach of tracking cellobiose was chosen due to its higher detection sensitivity. In the substrate range used to determine kinetic parameters (0.47 to 30 mM for A-BG and 0.47 to 15 mM for the other three BGs), the detection sensitivity is reasonable.
A similar simultaneous nonlinear regression method based on the competitive inhibition equation expressed in Equation (1) was used to determine kinetic parameters of BG towards cellobiose. […]

OC[C@H]1OC(O)[C@H](O)[C@@H](O)[C@@H]1O (some centres unmarked) [glucose]
Ki (cellobiose substrate, competitive inhibition): 3.13 ± 0.76 mM
Km/Ki (inhibitor influence, Km for cellobiose / Ki for glucose): 0.51

— patent US10077436B2, “Beta-glucosidase enzymes for increased biomass saccharification” (Edeniq, Inc., priority 2013, dated 2018)
